In paper PMC2009665, “The bacterial mutation test. Six tests for carcinogenicity” (British Journal of Cancer, 1978):
Read-outs that look alike come from different tables or passages of the source.

What was measured:
[1] = tested on: Salmonella typhimurium TA 1538
[2] = tested on: Salmonella typhimurium (TA 1535, TA 1538, TA 98 and TA 100)
TA 1537 = settings: cited from earlier work
Strain TA 1530 = settings: cited from earlier work
Strain TA 1532 = settings: Lab 8; H induction method unknown; ref Green (1974); cited from earlier work
strain TA 1950 = settings: after induction of enzymes with BHT; ref Green, 1974; cited from earlier work
strain TA 1952 = settings: after induction of enzymes with BHT; ref Green, 1974; cited from earlier work
[3] = tested on: Salmonella typhimurium TA 1535
[4] = tested on: Salmonella typhimurium TA 98
[5] = tested on: Salmonella typhimurium TA 1535; settings: cited from earlier work
S. typhimurium = settings: cited from earlier work
[6] = tested on: Salmonella typhimurium TA 100
[7] = tested on: Salmonella typhimurium TA 100; settings: cited from earlier work
Strain G46 = settings: cited from earlier work
Strain C 3076 = settings: cited from earlier work
[8] = tested on: Salmonella typhimurium TA 1538; settings: cited from earlier work
[9] = tested on: Salmonella typhimurium TA 98; settings: cited from earlier work

Compound: C=CCc1ccc2c(c1)OCO2 [Safrole]
- Result on TA 1538 [1]: -
- Result in the present study [2]: positive
- Result on TA 1537 (TA 1537): -
- Result on other strains: TA 1530 (Strain TA 1530; Lab 8, H induction method unknown, ref Green (1974)): 3+
- Result on other strains: TA 1532 (Strain TA 1532): 2+
- Result in host-mediated assay, strain TA 1950 (strain TA 1950): positive
- Result in host-mediated assay, strain TA 1952 (strain TA 1952): positive

Compound: Nc1ccc2ccccc2c1 [2-Naphthylamine]
- Result on TA 1535 [3]: +
- Result on TA 98 [4]: -
- Result on TA 1535 [5]: +

Compound: CCN(CC)N=O [Diethylnitrosamine]
- Result in the present study [2]: positive
- Result on subsequent testing [2]: negative

Compound: C=CCl [Vinyl chloride]
- Result dissolved in DMSO (S. typhimurium): negative
- Result when tested as a gas (S. typhimurium): positive

Compound: Nc1cc2c3ccccc3ccc2c2ccccc12 [6-Aminochrysene]
- Result on TA 1535 [3]: -
- Result on TA 98 [4]: +
- Result on TA 1537 (TA 1537): +

Compound: CCOS(C)(=O)=O [Ethyl methanesulphonate]
- Result on TA 1535 [3]: +
- Result on TA 1538 [1]: +
- Result on TA 98 [4]: +
- Result on TA 100 [6]: +
- Result in the present study [2]: detected in all 4 strains
- Result on TA 1535 [5]: +
- Result on TA 100 [7]: +
- Result on other strains: G46 (Strain G46): 46+
- Result on other strains: C 3076 (Strain C 3076): 76+

Compound: NN [Hydrazine]
- Result on TA 1535 [3]: +
- Result on TA 1538 [1]: -
- Result on TA 98 [4]: +
- Result on TA 100 [6]: +
- Result on TA 1535 [5]: +
- Result on TA 1538 [8]: -
- Result on TA 1537 (TA 1537): -
- Result on other strains: TA 1530 (Strain TA 1530; Lab 2, W no S9 mix, ref McCann et al. (1975) and references quoted therein): 3+
- Result on other strains: G46 (Strain G46): 46+

Compound: CN(C)N=O [Dimethylnitrosamine]
- Result on TA 1535 [3]: -
- Result on TA 1538 [1]: -
- Result on TA 98 [4]: -
- Result in the present study [2]: negative
- Result on subsequent testing [2]: positive results have, on occasions
- Result on other strains: TA 1530 (Strain TA 1530; Lab 4, P Phenobarbital induction and S9 mix added, L tested in liquid culture, ref Bartsch et al. (1976)): 3+

Compound: CN(C)c1ccc(N=Nc2ccccc2)cc1 [4-Dimethylaminoazobenzene]
- Result on TA 1535 [3]: +
- Result on TA 1538 [1]: +
- Result on TA 98 [4]: +
- Result on TA 100 [6]: +
- Result in the present study [2]: positive
- Result on TA 1538 [8]: +
- Response in the plate incorporation assay (S. typhimurium; plate incorporation assay, ref Commoner et al. (1974)): unable to obtain a positive response

Compound: Cc1c2ccccc2c(C)c2c1ccc1ccccc12 [9,10-Dimethyl-1,2-benzanthracene]
- Maximum fold increase in Salmonella revertants above the concurrent negative-control values, TA 1535 [3]: -
- Concentration of the compound at which the maximum effect occurred, TA 1538 [1]: 2500
- Maximum fold increase in Salmonella revertants above the concurrent negative-control values, TA 1538 [1]: 4 fold
- Maximum fold increase in Salmonella revertants above the concurrent negative-control values, TA 98 [4]: -
- Concentration of the compound at which the maximum effect occurred, TA 100 [6]: 2500
- Maximum fold increase in Salmonella revertants above the concurrent negative-control values, TA 100 [6]: 5 fold
- Test result (prediction of carcinogenicity from the test) [2]: +

Compound: CCOC(N)=O [Urethane]
- Result on TA 1535 [3]: -
- Result on TA 1538 [1]: -
- Result on TA 98 [4]: -
- Result on TA 1535 [5]: -
- Result on TA 98 [9]: -
- Result on TA 1537 (TA 1537): -

Compound: O=C1CCO1 [/3-Propiolactone]
- Result on TA 1538 [1]: +
- Result on TA 98 [4]: -
- Result on TA 100 [6]: +
- Result on TA 100 [7]: +
- Result on other strains: G46 (Strain G46): 46+
- Result on other strains: C 3076 (Strain C 3076): 76+

Compound: Nc1ccc(-c2ccccc2)cc1 [4-Aminobiphenyl]
- Result on TA 1535 [3]: -
- Result on TA 1538 [1]: +
- Result on TA 98 [4]: +
- Result on TA 1537 (TA 1537): +

Compound: Nc1ccc2cc3ccccc3cc2c1 [2-Aminoanthracene]
- Result on TA 1538 [1]: +
- Result on TA 100 [6]: +
- Result on TA 1538 [8]: +
- Result on TA 100 [7]: +

Compound: CN(C)P(=O)(N(C)C)N(C)C [Hexamethylphosphoramide]
- Result on TA 1538 [1]: -
- Result on TA 98 [4]: -
- Result on TA 1538 [8]: -
- Result on TA 98 [9]: -
